Experimental data: PubChem BioAssay (NCI)
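A five-concentration, 48-hour dose response in 96-well plates underlies each endpoint, interpolated linearly between surrounding concentrations. GI50 marks 50% less growth. The concentration for full growth arrest is given as TGI.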

Tests used:
Test in all cases: NCI tumour cell line growth inhibition, 48 h
786-0 renal = tested on: 786-0 renal
A498 renal = tested on: A498 renal
A549 NSCLC = tested on: A549 NSCLC
ACHN renal = tested on: ACHN renal
BT-549 breast = tested on: BT-549 breast
CAKI-1 renal = tested on: CAKI-1 renal
CCRF-CEM leukemia = tested on: CCRF-CEM leukemia
COLO 205 colon = tested on: COLO 205 colon
DU-145 prostate = tested on: DU-145 prostate
EKVX NSCLC = tested on: EKVX NSCLC
HCC-2998 colon = tested on: HCC-2998 colon
HCT-116 colon = tested on: HCT-116 colon
HCT-15 colon = tested on: HCT-15 colon
HL-60(TB) leukemia = tested on: HL-60(TB) leukemia
HOP-62 NSCLC = tested on: HOP-62 NSCLC
HOP-92 NSCLC = tested on: HOP-92 NSCLC
HS 578T breast = tested on: HS 578T breast
HT29 colon = tested on: HT29 colon
IGROV1 ovarian = tested on: IGROV1 ovarian
K-562 leukemia = tested on: K-562 leukemia
KM12 colon = tested on: KM12 colon
LOX IMVI melanoma = tested on: LOX IMVI melanoma
M14 melanoma = tested on: M14 melanoma
MALME-3M melanoma = tested on: MALME-3M melanoma
MCF7 breast = tested on: MCF7 breast
MDA-MB-231 breast = tested on: MDA-MB-231 breast
MDA-MB-435 = tested on: MDA-MB-435
MOLT-4 leukemia = tested on: MOLT-4 leukemia
NCI-H226 lung = tested on: NCI-H226 lung
NCI-H23 lung = tested on: NCI-H23 lung
NCI-H460 lung = tested on: NCI-H460 lung
NCI-H522 lung = tested on: NCI-H522 lung
NCI/ADR-RES ovarian = tested on: NCI/ADR-RES ovarian
OVCAR-3 ovarian = tested on: OVCAR-3 ovarian
OVCAR-4 ovarian = tested on: OVCAR-4 ovarian
OVCAR-5 ovarian = tested on: OVCAR-5 ovarian
OVCAR-8 ovarian = tested on: OVCAR-8 ovarian
PC-3 prostate = tested on: PC-3 prostate
RPMI-8226 leukemia = tested on: RPMI-8226 leukemia
RXF 393 renal = tested on: RXF 393 renal
SF-268 CNS = tested on: SF-268 CNS
SF-295 CNS = tested on: SF-295 CNS
SF-539 CNS = tested on: SF-539 CNS
SK-MEL-2 melanoma = tested on: SK-MEL-2 melanoma
SK-MEL-28 melanoma = tested on: SK-MEL-28 melanoma
SK-MEL-5 melanoma = tested on: SK-MEL-5 melanoma
SK-OV-3 ovarian = tested on: SK-OV-3 ovarian
SN12C renal = tested on: SN12C renal
SNB-19 CNS = tested on: SNB-19 CNS
SNB-75 CNS = tested on: SNB-75 CNS
SR leukemia = tested on: SR leukemia
SW-620 colon = tested on: SW-620 colon
T-47D breast = tested on: T-47D breast
TK-10 renal = tested on: TK-10 renal
U251 CNS = tested on: U251 CNS
UACC-257 melanoma = tested on: UACC-257 melanoma
UACC-62 melanoma = tested on: UACC-62 melanoma
UO-31 renal = tested on: UO-31 renal

`O=C(/C=C/c1cccs1)c1ccc(Nc2nc(Nc3ccc(F)cc3)nc(Nc3ccc(F)cc3)n2)cc1` showed a GI50 (786-0 renal) of 38.5 µM, a TGI (786-0 renal) greater than 100 µM and a GI50 (A498 renal) of 9.24 µM. The TGI (A498 renal) was greater than 100 µM, the GI50 (A549 NSCLC) was 3.87 µM and the TGI (A549 NSCLC) was 22.5 µM. For the same compound, the GI50 (ACHN renal) was 86.5 µM, the TGI (ACHN renal) was greater than 100 µM and the GI50 (BT-549 breast) was 16.7 µM. The TGI (BT-549 breast) was 32.4 µM, the GI50 (CAKI-1 renal) was 38.1 µM and the TGI (CAKI-1 renal) was greater than 100 µM. It also gave a GI50 (CCRF-CEM leukemia) of 40.9 µM, a TGI (CCRF-CEM leukemia) greater than 100 µM and a GI50 (COLO 205 colon) of 12.5 µM. For the same compound, the TGI (COLO 205 colon) was 80.2 µM, the GI50 (DU-145 prostate) was 52.7 µM and the TGI (DU-145 prostate) was greater than 100 µM. The GI50 (EKVX NSCLC) was 34.3 µM, the TGI (EKVX NSCLC) was greater than 100 µM and the GI50 (HCC-2998 colon) was 15.8 µM. It also gave a TGI (HCC-2998 colon) greater than 100 µM, a GI50 (HCT-116 colon) of 23.6 µM and a TGI (HCT-116 colon) greater than 100 µM. The GI50 (HCT-15 colon) was 37.4 µM, the TGI (HCT-15 colon) was greater than 100 µM and the GI50 (HL-60(TB) leukemia) was 62.2 µM. The TGI (HL-60(TB) leukemia) was greater than 100 µM, the GI50 (HOP-62 NSCLC) was greater than 100 µM and the TGI (HOP-62 NSCLC) was greater than 100 µM. It also gave a GI50 (HOP-92 NSCLC) of 25.8 µM, a TGI (HOP-92 NSCLC) of 57.8 µM and a GI50 (HS 578T breast) of 23.8 µM. It also gave a TGI (HS 578T breast) of 74.3 µM, a GI50 (HT29 colon) of 22.2 µM and a TGI (HT29 colon) of 70.5 µM. It also gave a GI50 (IGROV1 ovarian) of 18 µM, a TGI (IGROV1 ovarian) of 41 µM and a GI50 (K-562 leukemia) of 29.9 µM. The TGI (K-562 leukemia) was greater than 100 µM, the GI50 (KM12 colon) was 16.3 µM and the TGI (KM12 colon) was 45.2 µM. The GI50 (LOX IMVI melanoma) was 32.1 µM, the TGI (LOX IMVI melanoma) was greater than 100 µM and the GI50 (M14 melanoma) was 29.7 µM. It also gave a TGI (M14 melanoma) greater than 100 µM, a GI50 (MALME-3M melanoma) of 40.4 µM and a TGI (MALME-3M melanoma) greater than 100 µM. For the same compound, the GI50 (MCF7 breast) was 14 µM, the TGI (MCF7 breast) was 46.2 µM and the GI50 (MDA-MB-231 breast) was 34.7 µM. It also gave a TGI (MDA-MB-231 breast) greater than 100 µM, a GI50 (MDA-MB-435) of 24.5 µM and a TGI (MDA-MB-435) of 67.6 µM. It also gave a GI50 (MOLT-4 leukemia) of 29.1 µM, a TGI (MOLT-4 leukemia) greater than 100 µM and a GI50 (NCI-H226 lung) greater than 100 µM. It also gave a TGI (NCI-H226 lung) greater than 100 µM, a GI50 (NCI-H23 lung) of 24.2 µM and a TGI (NCI-H23 lung) of 71.2 µM. It also gave a GI50 (NCI-H460 lung) of 20.4 µM, a TGI (NCI-H460 lung) greater than 100 µM and a GI50 (NCI-H522 lung) of 20.5 µM. For the same compound, the TGI (NCI-H522 lung) was 46.4 µM, the GI50 (NCI/ADR-RES ovarian) was 31.3 µM and the TGI (NCI/ADR-RES ovarian) was greater than 100 µM. The GI50 (OVCAR-3 ovarian) was 17.7 µM, the TGI (OVCAR-3 ovarian) was 35.3 µM and the GI50 (OVCAR-4 ovarian) was 17.7 µM. The TGI (OVCAR-4 ovarian) was 46.2 µM, the GI50 (OVCAR-5 ovarian) was greater than 100 µM and the TGI (OVCAR-5 ovarian) was greater than 100 µM. The GI50 (OVCAR-8 ovarian) was 21.7 µM, the TGI (OVCAR-8 ovarian) was 51.2 µM and the GI50 (PC-3 prostate) was 19 µM. The TGI (PC-3 prostate) was 44.4 µM, the GI50 (RPMI-8226 leukemia) was 20.9 µM and the TGI (RPMI-8226 leukemia) was greater than 100 µM. The GI50 (RXF 393 renal) was 23.3 µM, the TGI (RXF 393 renal) was 75.1 µM and the GI50 (SF-268 CNS) was 30.2 µM. It also gave a TGI (SF-268 CNS) greater than 100 µM, a GI50 (SF-295 CNS) of 20.4 µM and a TGI (SF-295 CNS) of 46.6 µM. The GI50 (SF-539 CNS) was 17.8 µM, the TGI (SF-539 CNS) was 35.7 µM and the GI50 (SK-MEL-2 melanoma) was 44.4 µM. The TGI (SK-MEL-2 melanoma) was greater than 100 µM, the GI50 (SK-MEL-28 melanoma) was 18.2 µM and the TGI (SK-MEL-28 melanoma) was 39.1 µM. For the same compound, the GI50 (SK-MEL-5 melanoma) was 56.4 µM, the TGI (SK-MEL-5 melanoma) was greater than 100 µM and the GI50 (SK-OV-3 ovarian) was 56 µM. For the same compound, the TGI (SK-OV-3 ovarian) was greater than 100 µM, the GI50 (SN12C renal) was greater than 100 µM and the TGI (SN12C renal) was greater than 100 µM. For the same compound, the GI50 (SNB-19 CNS) was 34.1 µM, the TGI (SNB-19 CNS) was greater than 100 µM and the GI50 (SNB-75 CNS) was 22.5 µM. For the same compound, the TGI (SNB-75 CNS) was 70.4 µM, the GI50 (SR leukemia) was 14.7 µM and the TGI (SR leukemia) was 60.1 µM. It also gave a GI50 (SW-620 colon) of 28.3 µM, a TGI (SW-620 colon) of 96.4 µM and a GI50 (T-47D breast) of 15.2 µM. For the same compound, the TGI (T-47D breast) was 79.1 µM, the GI50 (TK-10 renal) was 40.4 µM and the TGI (TK-10 renal) was greater than 100 µM. The GI50 (U251 CNS) was 18.3 µM, the TGI (U251 CNS) was 35.4 µM and the GI50 (UACC-257 melanoma) was 55.1 µM. It also gave a TGI (UACC-257 melanoma) greater than 100 µM, a GI50 (UACC-62 melanoma) greater than 100 µM and a TGI (UACC-62 melanoma) greater than 100 µM. It also gave a GI50 (UO-31 renal) of 19.5 µM and a TGI (UO-31 renal) of 79.7 µM.
